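Protocol summary: plate cells (96-well), add compound at 5 concentrations, incubate 48 h, interpolate endpoints linearly. The concentration for full growth arrest is given as TGI.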

Holding throughout (assay): NCI tumour cell line growth inhibition, 48 h
In assay [1] the test system is NCI-H226 lung.
Assay [2] relates to OVCAR-3 ovarian.
The subject of assay [3] is SW-620 colon.
Assay [4] has as its system SR leukemia.
For assay [5], the system named is 786-0 renal.
Assay [6] concerns T-47D breast.
The subject of assay [7] is COLO 205 colon.
Assay [8] has as its system RPMI-8226 leukemia.
Assay [9] relates to K-562 leukemia.
Assay [10] concerns NCI-H460 lung.
Assay [11] relates to CCRF-CEM leukemia.
The subject of assay [12] is MOLT-4 leukemia.
Assay [13] has as its system SK-OV-3 ovarian.
Assay [14] concerns IGROV1 ovarian.
Assay [15] concerns OVCAR-5 ovarian.
Assay [16] deals with UACC-62 melanoma.
For assay [17], the system named is SF-268 CNS.
Assay [18] has as its system NCI/ADR-RES ovarian.
Assay [19] relates to HL-60(TB) leukemia.
For assay [20], the system named is MCF7 breast.

In the case of `CO[C@@H](c1ccccc1)[C@H](O)[C@](O)(c1ccccc1)P(=O)(OC)OC`, the TGI in [1], in assay [2], in assay [3], in assay [4], in assay [5] and in [6] was more than 100 µM in each case. Further, the TGI in [7], in assay [8], in [9], in [10], in [11] and in assay [12] was more than 100 µM each time. For the same compound, the TGI in assay [13], in assay [14], in assay [15], in assay [16], in [17] and in assay [18] was more than 100 µM each time. Moreover, in assay [19], the TGI is more than 100 µM.

`O=C(O)C/C(=C\c1ccccc1)C(=O)O`: the TGI in assay [1], in [2], in assay [3], in assay [5], in [6] and in assay [7] was more than 100 µM in each case. Further, the TGI was more than 100 µM in assay [8]; 93.5 µM in assay [9]; more than 100 µM in assay [10]; more than 100 µM in assay [11]; more than 100 µM in [20]; more than 100 µM in assay [12]. For the same compound, the TGI in assay [13], in [14], in [15], in assay [16], in [17] and in assay [18] was more than 100 µM throughout. Also, in assay [19], the TGI is more than 100 µM.

As to `CC(C)N1CSC(=S)N(Cc2ccccc2)C1`, the TGI was more than 10 µM in [2]; more than 10 µM in assay [3]; 4.81 µM in assay [4]; more than 10 µM in assay [6]; more than 10 µM in assay [7]; more than 10 µM in assay [8]. The TGI is more than 10 µM in [9]; more than 10 µM in [10]; more than 10 µM in assay [11]; more than 10 µM in assay [20]; 7.43 µM in assay [12]; more than 10 µM in assay [13]. For the same compound, the TGI was more than 10 µM in assay [14]; more than 10 µM in assay [16]; more than 10 µM in [17]; more than 10 µM in assay [18]; 0.652 µM in assay [19].

On to `CN(C)C(=C1c2cc([N+](=O)[O-])ccc2-c2ccc([N+](=O)[O-])cc21)N(C)C`, for which the TGI in assay [1], in assay [2], in assay [3], in assay [5], in [6] and in [7] was more than 100 µM each time. In addition, the TGI in assay [8] is 25.3 µM; in [9], more than 100 µM; in [11] it was more than 100 µM; in assay [20], more than 100 µM; in assay [12], more than 100 µM; in [13] it was more than 100 µM. Moreover, the TGI in [14], in assay [15], in assay [16], in assay [17] and in assay [18] was more than 100 µM each time.

For `Cn1c(COC(=O)NC2CCCCC2)c(COC(=O)NC2CCCCC2)c2ccc3cc(Cl)c(Cl)cc3c21`, the TGI in [1] is more than 100 µM; in [2], 29.9 µM; in assay [3] it was 32.8 µM; in [5], 30.3 µM; in assay [6] it was 22.4 µM; in assay [7] it was 24.6 µM. Besides, the TGI in [9] is 15.7 µM; in assay [10] it was 17.3 µM; in [11] it was 11.3 µM; in assay [20] it was 16.9 µM; in assay [12], 54.4 µM; in assay [13], more than 100 µM. Besides, the TGI in [14] is 39.1 µM; in assay [15], 34.5 µM; in assay [16], 24.1 µM; in assay [17], 24.5 µM; in assay [18] it was more than 100 µM; in assay [19] it was 26.4 µM.

In the case of `CC1=CCS(=O)(=O)C1C(O)C1=C(C)CCCC1(C)C` (stereo not given), the TGI in assay [1], in assay [2], in assay [3], in assay [5], in [6] and in assay [7] was more than 100 µM in each case. Besides, the TGI in [8], in assay [9], in assay [11], in [20], in assay [12] and in assay [13] was more than 100 µM each time. In addition, the TGI in [14], in assay [15], in [16], in assay [18] and in assay [19] was more than 100 µM in each case.

For the compound `COC(=O)c1cc(-c2c[nH]cc2C(=O)OCc2ccccc2)cn1S(=O)(=O)c1ccc(C)cc1`, the TGI in [2], in assay [4], in assay [5], in assay [6], in assay [7] and in assay [9] was more than 100 µM in each case. The TGI in assay [10], in [11], in [20], in assay [12], in assay [13] and in [14] was more than 100 µM in each case. The TGI in assay [15], in assay [16], in assay [17] and in [18] was more than 100 µM throughout.

For the compound `CCOC(=O)COc1ccc(/C=C/C(=O)c2ccc(OC)cc2)cc1`, the TGI in assay [2] was more than 100 µM; in assay [3], 61.6 µM; in assay [4], 87.4 µM; in assay [5] it was 54.3 µM; in [6] it was more than 100 µM; in assay [7], more than 100 µM. For the same compound, the TGI in [8], in [9], in assay [11], in assay [20], in assay [12] and in [14] was more than 100 µM throughout. Further, the TGI is more than 100 µM in assay [15]; 58.6 µM in assay [16]; 82.7 µM in assay [17]; more than 100 µM in assay [18]; more than 100 µM in [19].

(Values after PubChem BioAssay (NCI).)
